Results on 23 compounds are retold here after BindingDB's records for doi:10.1021/jm00081a009 (Glaxo Group Research, 1992).

As usually defined, the IC50 is the concentration that gives 50% inhibition. Higher therefore signals a need for much substance.

Some results are limits rather than exact numbers.

The first experiment can be described thus: Kappa-opioid receptor agonist potency in vitro using rabbit vas deferens(LVD) preparation.
Turning to `NC(=O)[C@H]1CCC[C@@H](CN2CCCC2)N1C(=O)Cc1ccc(Cl)c(Cl)c1`, the half-maximal inhibitory concentration (IC50) is > 10000 nM.

The compound `COC(=O)[C@H]1CC[C@@H](CN2CCCC2)N(C(=O)Cc2ccc(Cl)c(Cl)c2)C1` yielded a concentration for half-maximal inhibition (IC50) of 300 nM.

`O=C1CCCN(C(=O)Cc2ccc(Cl)c(Cl)c2)C1CN1CCCC1` (stereo not drawn): the IC50 was 2000 nM.

In turn, `O=C(Cc1ccc(Cl)c(Cl)c1)N1CC2(CC[C@H]1CN1CCCC1)OCCO2` yielded an IC50 of 160 nM.

On to `COC(=O)C1=CCCN(CC2CCCCN2C(=O)Cc2ccc(Cl)c(Cl)c2)C1` (stereo not drawn), for which the IC50 is 15 nM.

The compound `O=C(Cc1ccc(Cl)c(Cl)c1)N1CCCCC1CN1CCCO1` (stereo not drawn) registered an IC50 of 69 nM.

`O=C(Cc1ccc(Cl)c(Cl)c1)N1CCCCC1CN1CC=CCC1` (stereo not drawn) had an IC50 of 6.3 nM. Against the preceding compound, the IC50 is about 11-fold lower.

Take `NC(=O)[C@H]1CC[C@@H](CN2CCCC2)N(C(=O)Cc2ccc(Cl)c(Cl)c2)C1`: the 50% inhibitory concentration (IC50) is > 10000 nM.

With `COC(=O)[C@@H]1CCC[C@@H](CN2CCCC2)N1C(=O)Cc1ccc(Cl)c(Cl)c1`, the IC50 came out at 110 nM. In other words, the sub-micromolar range.

For the compound `NC(=O)[C@@H]1CCN(C(=O)Cc2ccc(Cl)c(Cl)c2)[C@H](CN2CCCC2)C1`, the half-maximal inhibitory concentration (IC50) was found to be 1200 nM.

The compound `O=C1CC[C@@H](CN2CCCC2)N(C(=O)Cc2ccc(Cl)c(Cl)c2)C1` registered an IC50 of 390 nM. This IC50 is about 3.1-fold lower than that of the compound before.

The nature of the next experiment: Opioid receptor kappa agonist potency was determined in vitro using rabbit vas deferens(LVD) preparation.
Consider `C=CCC1(CN2CCCC2)CCCCN1C(=O)Cc1ccc(Cl)c(Cl)c1` (stereo not drawn), for which the IC50 is > 10000 nM.

For `O=C(Cc1ccc(Cl)c(Cl)c1)N1CCCCC1CN1CCC(O)C1` (stereo not drawn), the IC50 was determined as 0.88 nM. That is a sub-nanomolar value.

The compound `C[C@H]1CCC[C@@H](CN2CCCC2)N1C(=O)Cc1ccc(Cl)c(Cl)c1` yielded an IC50 of 1.7 nM. This IC50 lies about 1.9-fold higher than the previous one.

`COC(=O)[C@@H]1CCN(C(=O)Cc2ccc(Cl)c(Cl)c2)[C@H](CN2CCCC2)C1` showed a half-maximal inhibitory concentration (IC50) of 250 nM.

On to `O=C(Cc1ccc(Cl)c(Cl)c1)N1CCCCC1CN1CCCCC1` (stereo not drawn), for which the IC50 was 260 nM.

The compound `O=C(Cc1ccc(Cl)c(Cl)c1)N1CC[C@H](O)C[C@H]1CN1CCCC1` came in with an IC50 of 1400 nM.

With `O=C1CCN(C(=O)Cc2ccc(Cl)c(Cl)c2)C(CN2CCCC2)C1` (stereo not drawn), the IC50 was determined as 46 nM.

Turning to `O=C(Cc1ccc(Cl)c(Cl)c1)N1CCC[C@@H](O)[C@H]1CN1CCCC1`, the half-inhibitory concentration (IC50) stood at 590 nM. Compared with the last compound, the IC50 is about 13-fold higher.

Regarding `C=C1CCN(CC2CCCCN2C(=O)Cc2ccc(Cl)c(Cl)c2)C1` (stereo not drawn), the half-maximal inhibitory concentration (IC50) was 29 nM. This IC50 is about 20-fold lower than that of the compound before.

For `CC1(CN2CCCC2)CCCCN1C(=O)Cc1ccc(Cl)c(Cl)c1` (stereo not drawn), the IC50 is > 10000 nM.

Compound `COC(=O)/C=C1\CCN(CC2CCCCN2C(=O)Cc2ccc(Cl)c(Cl)c2)C1` (stereo not drawn) returned an IC50 of 1020 nM.

As for `O=C(Cc1ccc(Cl)c(Cl)c1)N1CCC2(CC1CN1CCCC1)SCCS2` (stereo not drawn), the half-inhibitory concentration (IC50) was determined as 5 nM.
